# Test results published in article PMC5908784, “Extracellular loops 2 and 3 of the calcitonin receptor selectively modify agonist binding and efficacy” (Biochemical Pharmacology, 2018).
# Where a chain is given by its changes, count along the chain named. Where a SMILES comes first, the peptide text is derived from it. Bridges are numbered along the chain shown (N, C = ends).
# What was measured:
# Experiment in all cases: Heterologous whole cell competition binding
# Settings in all cases: heterologous competition of 125I-sCT(8-32), whole cells, mean ± S.E.M., SEM
# hCTR F285A = target: T1, hCTR F285A (Homo sapiens, UniProt P30988, F285A)
# T1 construct: expressed in transfected cells
# T1 sequence (P30988 25-474 F285A): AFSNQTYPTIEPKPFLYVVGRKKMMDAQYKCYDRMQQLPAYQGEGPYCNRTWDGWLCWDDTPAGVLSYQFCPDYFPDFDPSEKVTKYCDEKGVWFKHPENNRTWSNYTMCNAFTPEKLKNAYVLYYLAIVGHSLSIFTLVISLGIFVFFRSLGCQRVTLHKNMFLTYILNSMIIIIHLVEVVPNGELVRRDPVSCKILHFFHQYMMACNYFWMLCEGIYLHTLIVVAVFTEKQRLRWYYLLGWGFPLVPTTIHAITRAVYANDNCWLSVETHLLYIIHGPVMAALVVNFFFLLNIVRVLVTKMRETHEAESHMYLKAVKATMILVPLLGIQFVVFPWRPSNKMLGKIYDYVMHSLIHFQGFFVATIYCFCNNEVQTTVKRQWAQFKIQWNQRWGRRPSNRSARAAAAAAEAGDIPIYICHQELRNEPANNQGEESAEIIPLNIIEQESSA
# In short: (§1)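 Gamma counter read-out of bound radioactivity after overnight incubation and removal of non-bound ligand. Affinities are given as pKi, derived with Cheng-Prusoff correction.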
# hCTR M376A = target: T2, hCTR M376A (Homo sapiens, UniProt P30988, M376A)
# T2 construct: c-Myc (N); expressed in transfected cells
# T2 sequence (P30988 25-474 M376A): T1 sequence (P30988 25-474 F285A) with A261F, M352A
# In short: as §1
# hCTR R362A = target: T3, hCTR R362A (Homo sapiens, UniProt P30988, R362A)
# T3 construct: expressed in transfected cells
# T3 sequence (P30988 25-474 R362A): T1 sequence (P30988 25-474 F285A) with A261F, R338A
# In short: as §1
# hCTR WT = target: T4, hCTR WT (Homo sapiens, UniProt P30988)
# T4 construct: expressed in transfected cells
# T4 sequence (P30988 25-474): T1 sequence (P30988 25-474 F285A) with A261F
# In short: as §1
# hCTR Y299A = target: T5, hCTR Y299A (Homo sapiens, UniProt P30988, Y299A)
# T5 construct: c-Myc (N); expressed in transfected cells
# T5 sequence (P30988 25-474 Y299A): T1 sequence (P30988 25-474 F285A) with A261F, Y275A
# In short: as §1
compound,measurement,setting,value
CSCC[C@H](NC(=O)CNC(=O)[C@H](CO)NC(=O)[C@H](Cc1ccccc1)NC(=O)[C@H](CCCNC(=N)N)NC(=O)[C@H](Cc1c[nH]cn1)NC(=O)[C@H](Cc1ccccc1)NC(=O)[C@H](CC(N)=O)NC(=O)[C@H](CC(N)=O)NC(=O)[C@H](CC(C)C)NC(=O)[C@H](CC(N)=O)NC(=O)[C@H](CCCNC(=N)N)NC(=O)[C@H](Cc1c[nH]c2ccccc12)NC(=O)[C@H](Cc1ccc(O)cc1)NC(=O)[C@H](C)NC(=O)[C@H](CO)NC(=O)[C@H](CC(C)C)NC(=O)[C@@H](NC(=O)[C@@H]1CSSC[C@H](N)C(=O)N[C@@H](CO)C(=O)N[C@@H](CC(N)=O)C(=O)N[C@@H](CC(C)C)C(=O)N[C@@H](CO)C(=O)N[C@@H]([C@@H](C)O)C(=O)N1)C(C)C)C(=O)NCC(=O)N[C@@H](Cc1ccccc1)C(=O)NCC(=O)N1CCC[C@H]1C(=O)N[C@@H](CCC(=O)O)C(=O)N[C@H](C(=O)N1CCC[C@H]1C(N)=O)[C@@H](C)O [pCT] (H-CSNLSTCVLSAYWRNLNNFHRFSGMGFGPETP-NH2; disulfide 1-7),Ki,hCTR F285A,12 nM
same,Ki,hCTR M376A,7.76 nM
same,Ki,hCTR R362A,46.8 nM
same,Ki,hCTR WT,5.37 nM
same,Ki,hCTR Y299A,46.8 nM
